Results: patent US6803367B2, “Substance for inducing apoptosis” (Takara Shuzo Co., Ltd., priority 1997, dated 2004)

Tests used:
Type in all cases: cell-based, human
HL-60 cells [1] = assay: Growth inhibition of HL-60 cells (MTT, 96-well microtiter plate); details: for activity of growth inhibition of cancer cells: 5 μl per well, 18 hours incubation
Procedure: (§1) To each of the wells of a 96-well microtiter plate was added 1000, 500, 250, 125, 62.5 or 31.3 μg/ml aqueous solution of imidazolylcyclopentenone obtained in Example 1-(2) or 10 μl of water as a control. HL-60 (ATCC CCL-240) was suspended in an RPMI 1640 medium containing 10% of fetal calf serum to make the concentration 5×10^4 cells/ml and each 90 μl thereof was placed in each well of the above-mentioned microtiter plate and incubated at 37° C. for 48 hours in the presence of 5% carbon dioxide. Incubation was conducted for four hours more after addition of 10 μl of a solution (5 mg/ml) of 3-(4,5-dimethylthiazol-2-yl)-2,5-diphenyltetrzolium bromide (MTT; manufactured by Sigma) in a phosphate-buffered saline solution and the state of growth of the cells was observed under a microscope. Further, 100 μl of 2-propanol containing 0.04N hydrochloric acid was added followed by stirring and an absorbance at 590 nm was measured.
The non-adsorbed fraction of Example 4 was adjusted to pH 3 with HCl and heated at 121° C. for 1 hour. The resulting heat-treated solution was diluted with aseptic water to an extent of 2-, 4-, 8-, 16-, 32- or 64-fold and its activity of growth inhibition of HL-60 cells was measured by the same way as in Example 3.
Main peaks and the fractions between them were collected and evaporated to dryness in vacuo, each of the fractions was diluted to an extent of 3- or 9-fold with water and their activity of growth inhibition of HL-60 cells was measured by the same way as in Example 3 except that 5 μl of the sample were added to each well and the incubation was conducted for 18 hours. […] Production of apoptotic body was confirmed as well.
The growth inhibiting activity of a 1 mM aqueous solution of MC2 and a 350 μM aqueous solution of HMC2 obtained in Example 10 to HL-60 cells was measured by the same way as in Example 3.

HL-60 cells [2] = assay: Observation of apoptotic body in HL-60 cells under a microscope
Procedure: as §1
As a result of observation under a microscope, production of apoptotic body was confirmed.
Main peaks and the fractions between them were collected and evaporated to dryness in vacuo, each of the fractions was diluted to an extent of 3- or 9-fold with water and their activity of growth inhibition of HL-60 cells was measured by the same way as in Example 3 except that 5 μl of the sample were added to each well and the incubation was conducted for 18 hours. […]

HL-60 cells [3] = assay: Viable and dead cell counting of HL-60 cells by Trypan Blue staining
Procedure: (§2) HL-60 cells (ATCC CCL240) which were incubated at 37° C. in an RPMI 1640 medium (manufactured by Nissui) containing 10% of fetal calf serum (manufactured by Gibco) treated at 56° C. for 30 minutes were suspended in the above medium to make the concentration 2.5×10^5 cells/4.5 ml. To this suspension was added 0.5 ml of 10 μM, 20 μM, 40 μM or 80 μM aqueous solution of S-1127 followed by incubating at 37° C. in the presence of 5% carbon dioxide gas for 15 hours or 39 hours.
(§3) Incidentally, such a phenomenon was not observed in the water-added control section.
In FIG. 31, ◯ indicates the case where 10 μM of S-1127 was added; Δ indicates the case where 20 μM of S-1127 was added; □ indicates the case where 40 μM of S-1127 was added; X indicates the case where 80 μM of S-1127 was added and ● indicates the control where water was added.

HL-60 cells [4] = assay: DNA fragmentation in HL-60 cells by agarose gel electrophoresis; details: after incubation for 15 hours; concentration of the aqueous solution added (0.5 ml to 4.5 ml suspension)
Procedure: as §2, §3

## COC1=CC(OC)CC1=O (stereo not shown) [MC2, 2,4-dimethoxy-2-cyclopenten-1-one]
HL-60 cells [1]; 1 mM solution added, final concentration 100 μM, HL-60
  growth of the cells: inhibited
HL-60 cells [2]; final concentration 100 μM
  apoptotic body under an optical microscope: observed

## CC(=O)Nc1ccc(O)c(O)c1O [N-(2,3,4-trihydroxyphenyl)acetamide]
HL-60 cells [1]; 3-fold diluted solution of the HPLC fraction, HL-60
  activity of growth inhibition of cancer cells: activity of growth inhibition of cancer cells was noted
HL-60 cells [1]; undiluted aqueous solution of the HPLC fraction, HL-60
  activity of growth inhibition of cancer cells: activity of growth inhibition of cancer cells was noted
HL-60 cells [2]; Example 6, 18 hours incubation
  production of apoptotic body: confirmed

## CC(=O)N[C@H]1C(O)O[C@H](CO)[C@H](O)[C@@H]1O (stereo partly shown) [N-acetylgalactosamine, reference compound]
HL-60 cells [1]; 4 mg/ml added, HL-60
  growth of the cells versus water-added control section: no difference

## O=CC(=CCc1ccc(O)cc1)c1ccc(O)cc1 [S-1127, 2,4-bis(p-hydroxyphenyl)-2-butenal]
HL-60 cells [3]; 20 μM added, after incubation of 39 hours
  living cell numbers compared with the water-added control section: significantly decreased
HL-60 cells [3]; after incubation of 15 hours, concentration of the aqueous solution added (0.5 ml to 4.5 ml suspension)
  concentration at which cells were killed: ≥ 40 µM
HL-60 cells [4]
  concentration at which fragmentation of DNA was noted: ≥ 20 µM

## O=C1CC(n2ccnc2)C=C1O (stereo not shown) [imidazolylcyclopentenone, 2-hydroxy-4-(1-imidazolyl)-2-cyclopenten-1-one]
HL-60 cells [1]; final concentration, 48 hours incubation, MTT
  concentration at which the growth of HL-60 cells was completely inhibited: 6.25 µg/mL
